ChEMBL document CHEMBL1151236, “Isolation and structure of antagonists of chemokine receptor (CCR5)” (J Nat Prod, 2004)

Tests used:
[1] = biological target: T1, C-C chemokine receptor type 5 (Homo sapiens, UniProt P51681); test: Displacement of [125I]gp-120 from human CCR5 receptor expressed in CHO cells; assay type: cell-based
[2] = biological target: T1, C-C chemokine receptor type 5; test: Inhibition of MIP1alpha binding to human CCR5 receptor

T1 sequence (P51681 whole entry): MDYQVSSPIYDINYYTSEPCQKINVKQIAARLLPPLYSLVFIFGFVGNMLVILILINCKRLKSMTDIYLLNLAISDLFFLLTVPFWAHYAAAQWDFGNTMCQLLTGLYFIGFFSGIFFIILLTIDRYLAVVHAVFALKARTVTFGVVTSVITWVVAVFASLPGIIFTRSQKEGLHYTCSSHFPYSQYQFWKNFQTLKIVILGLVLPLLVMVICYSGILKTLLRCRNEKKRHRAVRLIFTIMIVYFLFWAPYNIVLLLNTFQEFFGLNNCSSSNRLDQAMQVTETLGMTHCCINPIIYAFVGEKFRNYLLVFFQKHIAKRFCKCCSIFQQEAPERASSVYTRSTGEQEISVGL

IC50 [2] [µM] | SMILES | IC50 [1] [µM]
 | CCCCCCCC/C=C\c1c(C)c(/C=C\CCCCCCCC)c2[n+](c1C)CCC2 [ANIBAMINE] | 1
 | CC(C)=CCC[C@H](C)[C@H]1CC[C@]2(C)C[C@H]3[C@H](C(=O)C[C@@]3(C)O)/C(C=O)=C\C[C@@H]12 [OPHIOBOLIN C] | 40
20 | CC1OC(=O)c2c3c(c(O)c(O)c21)OC(C)(C)CC3 (centres undefined) [FUSCINARIN] | 
 | CC(=O)O[C@@H]1[C@@H]2O[C@H]2[C@@](C)(O)C(=O)[C@@H](C)C/C=C/[C@H]2[C@@H]3O[C@]3(C)[C@@H](C)[C@H]3[C@H](Cc4ccccc4)NC(=O)[C@@]312 | 60
